The results in this text go back to paper PMC5622025, “Synthesis and biological evaluation of tricyclic matrinic derivatives as a class of novel anti-HCV agents” (Chemistry Central Journal, 2017).

SMILES strings stand for the structures. Counter-ions that a name gives are not always drawn. Like-named read-outs stand apart in the source and are kept apart here.

Data set [1] has as its system HCV. As to the kind of experiment: Anti-HCV effect in vitro, intracellular HCV RNA by real-time RT-PCR in infected Huh7.5 cells. To be noted: for EC50: HCV-infected Huh7.5 cells, 72 h, real-time RT-PCR, read-out: EC50 (concentration required to inhibit HCV growth by 50%); for SI (ratio of CC50 to EC50): Huh7.5 cells. The format is cell-based, hepatitis C virus. As for the experimental part: (§1) All the target compounds were evaluated for their anti-HCV activities (EC50) and cytotoxicities (CC50) in human Huh7.5 cells using specific real-time RT-PCR assay, as described earlier. As an important indicator, the selectivity index (SI) was calculated as a ratio of CC50 to EC50. Anti-HCV ability of a given compound was estimated by combining its EC50 with SI values.
(§2) Human liver cell line Huh7.5 cells (kindly provided by Vertex Pharmaceuticals, Inc., Boston, MA) were cultured in Dulbecco’s modified eagle medium (DMEM) supplemented with 10% inactivated fetal bovine serum and 1% penicillin–streptomycin (invitrogen). Cells were digested with 0.05% trypsin-ethylene diamine tetraacetic acid (EDTA) and split twice a week.
Huh7.5 cells were seeded into 96-well or 6-well plates (Costar) at a density of 3 × 10^4 cells cm^−2. After 24 h incubation, the cells were infected with HCV viral stock (45 IU cell^−1) and simultaneously treated with the test compounds at various concentrations or solvent as control. The culture medium was removed after 72 h inoculation, the intracellular total RNA (in 96-well plates) was extracted with RNeasy Mini Kit (Qiagen), and total intracellular proteins (in 6-well plates) were extracted with Cyto-Buster Protein Extraction Reagent added with 1 mM protease inhibitor cocktail. The intracellular HCV RNA was quantified with a real time one-step reverse-transcription polymerase chain reaction (RT-PCR).

For data set [2], the system named is Huh7.5 cells. As to the kind of experiment: Cytotoxicity assay (MTT) in Huh7.5 cells. It counts as cell-based, human. As for the experimental part: as §1, §2
Huh7.5 cells were seeded into 96-well plates (Costar) at a density of 3 × 10^4 cells cm^−2. After 24 h incubation, fresh culture medium containing test compounds at various concentrations were added. 72 h later, cytotoxicity was evaluated with 3-(4,5-dimethylthiazol-2-yl)-2,5-diphenyltetrazolium bromide (MTT).

The mark [3] stands for this setting: Huh7.5 cells, 72 h, MTT, read-out: CC50 (cytotoxic concentration required to inhibit Huh7.5 cell growth by 50%).

Turning to `COC(=O)CCC[C@@H]1[C@H]2CCCN3CCC[C@@H](CN1Cc1ccc(F)cc1F)[C@@H]23` [6d, Methyl 12N-(2,4-difluorobenzyl)matrinate], in data set [1], the EC50 is 1.69 ± 1.47 µM and the “SI (ratio of CC50 to EC50)” value was 154. In data set [2] (setting [3]), the CC50 stood at 261 ± 28.7 µM.

As for `COc1ccc(CN2CC3CCCN4CCCC(C2/C=C\CCO)C34)cc1.Cl.Cl` (stereo not drawn) [14a, (Z)-12N-(4-Methoxybenzyl)-Δ^βγ-matrinic crotonol dihydrochloride], in data set [1], the EC50 was found to be 8.8 ± 2.15 µM and the “SI (ratio of CC50 to EC50)” value came to 24.3. For the same compound, in data set [2], the CC50 was found to be 214 ± 95 µM.

As for `COC(=O)C/C=C\C1C2CCCN3CCCC(CN1Cc1ccc(OC)cc1)C23` (stereo not drawn) [13a, (Z)-Methyl 12N-(4-methoxybenzyl)-Δ^βγ-matrinic crotonate], in data set [1], the EC50 was 16.7 ± 4.71 µM and the “SI (ratio of CC50 to EC50)” value amounted to 19.5. In data set [2], this compound yielded a CC50 of 326 ± 21 µM.

For the compound `CCCCCCCCN1C[C@@H]2CCCN3CCC[C@@H]([C@H]23)[C@H]1CCCCO` [3d], in data set [1], the EC50 came to 0.8 ± 0.26 µM and the “SI (ratio of CC50 to EC50)” value is 22.3. Moreover, the CC50 in data set [2] amounted to 17.8 ± 2.44 µM.

In the case of `COc1ccc(CN2C[C@@H]3CCCN4CCC[C@@H]([C@H]34)[C@H]2CCCC(C)(C)O)cc1.Cl.Cl` [10a, 1′,1′-Dimethyl-12N-(4-methoxybenzyl)matrinol dihydrochloride], in data set [1], the EC50 is 11.7 ± 0.06 µM and the “SI (ratio of CC50 to EC50)” value turned out to be 12.0. Further, in data set [2], the CC50 is over 140 µM.

Consider `COC(=O)CCC[C@@H]1[C@H]2CCCN3CCC[C@@H](CN1Cc1ccncc1)[C@@H]23` [6f, Methyl 12N-(pyridin-4-ylmethyl)matrinate], for which, in data set [1], the EC50 amounted to 4.66 ± 0.35 µM and the “SI (ratio of CC50 to EC50)” value was over 107. Further, the CC50 in data set [2] is over 500 µM.

In the case of `COC(=O)CCC[C@@H]1[C@H]2CCCN3CCC[C@@H](CN1Cc1ccc(C)cc1)[C@@H]23` [6b, Methyl 12N-(4-methylbenzyl)matrinate], in data set [1], the EC50 turned out to be 1.73 ± 1.36 µM and the “SI (ratio of CC50 to EC50)” value came to 76.8. Also, the CC50 in data set [2] (setting [3]) turned out to be 133 ± 7.53 µM.

Take `OCCCC[C@@H]1[C@H]2CCCN3CCC[C@@H](CN1Cc1ccc(F)cc1)[C@@H]23` [3a]: in data set [1], the EC50 was 2.99 ± 1.51 µM and the “SI (ratio of CC50 to EC50)” value came to 95.3. In addition, in data set [2], the CC50 came out at 285 ± 7.45 µM.

Regarding `Cl.Cl.OCC/C=C\C1C2CCCN3CCCC(CN1Cc1ccc(F)cc1)C23` (stereo not drawn) [14b, (Z)-12N-4-(Fluorobenzyl)-Δ^βγ-matrinic crotonol dihydrochloride], in data set [1], the EC50 was determined as 13.6 ± 2.63 µM and the “SI (ratio of CC50 to EC50)” value is 11.5. Further, the CC50 in data set [2] came out at 156 ± 65.8 µM.

Consider `Cl.Cl.O=C(CN1CC2CCCN3CCCC(C1CCCCO)C23)Nc1ccc(C(F)(F)F)cc1` (centres unmarked) [7i, 12N-(2-Oxo-2-((4-(trifluoromethyl)phenyl)amino)ethyl)matrinol dihydrochloride], for which, in data set [1], the EC50 is 4.19 ± 1.44 µM and the “SI (ratio of CC50 to EC50)” value came out at 20.6. Besides, the CC50 in data set [2] came out at 86.2 ± 4.33 µM.

In the case of `CCCCCCCN1C[C@@H]2CCCN3CCC[C@@H]([C@H]23)[C@H]1CCCCO` [3c], in data set [1], the EC50 amounted to 1.01 ± 0.55 µM and the “SI (ratio of CC50 to EC50)” value is 32.9. This compound also showed a CC50 in data set [2] of 33.3 ± 6.49 µM.

With `CCCN1C[C@@H]2CCCN3CCC[C@@H]([C@H]23)[C@H]1CCCCO` [3b], in data set [1], the EC50 turned out to be 16.4 ± 10.9 µM and the “SI (ratio of CC50 to EC50)” value is on record as over 30.5. In addition, in data set [2], the CC50 was over 500 µM.

As for `Cl.Cl.OCCCC[C@@H]1[C@H]2CCCN3CCC[C@@H](CN1Cc1ccncc1)[C@@H]23` [7e, 12N-(Pyridin-4-ylmethyl)matrinol dihydrochloride], in data set [1], the EC50 came out at 9.03 ± 5.58 µM and the “SI (ratio of CC50 to EC50)” value is recorded as over 55.4. In data set [2], this compound yielded a CC50 of over 500 µM.

As for `COC(=O)CCC[C@@H]1[C@H]2CCCN3CCC[C@@H](CN1Cc1ccc(OC)cc1)[C@@H]23.Cl.Cl` [6a, Methyl 12N-(4-methoxybenzyl)matrinate dihydrochloride], in data set [1], the EC50 was 7.01 ± 1.51 µM and the “SI (ratio of CC50 to EC50)” value is on record as 59.1. The CC50 in data set [2] worked out at 414 ± 7.34 µM.

In the case of `OCCCCC1C2CCCN3CCCC(CN1Cc1cccnc1)C23` (centres unmarked) [7f, 12N-(Pyridin-3-ylmethyl)matrinol], in data set [1], the EC50 worked out at 4.39 ± 3.01 µM and the “SI (ratio of CC50 to EC50)” value is given as over 114. In data set [2], the CC50 was over 500 µM.

Consider `COC(=O)C/C=C\[C@@H]1[C@H]2CCCN3CCC[C@@H](CN1Cc1cccc([N+](=O)[O-])c1)[C@@H]23.Cl.Cl` [13c, (Z)-Methyl 12N-(3-nitrobenzyl)-Δ^βγ-matrinic crotonate dihydrochloride], for which, in data set [1], the EC50 came out at 40.4 ± 3.64 µM and the “SI (ratio of CC50 to EC50)” value was found to be 10.0. In data set [2] (setting [3]), the CC50 turned out to be 402 ± 83.6 µM.

Turning to `OCCCCC1C2CCCN3CCCC(CN1Cc1ccc(F)cc1F)C23` (centres unmarked) [7d, 12N-(2,4-Difluorobenzyl)matrinol dihydrochloride], the EC50 in data set [1] was under 2.06 µM. Also, in data set [2] (setting [3]), the CC50 stood at 266 ± 9.47 µM.

As to `COC(=O)C/C=C\[C@@H]1[C@H]2CCCN3CCC[C@@H](CN1Cc1ccc(F)cc1)[C@@H]23.Cl.Cl` [13b, (Z)-Methyl 12N-(4-fluorobenzyl)-Δ^βγ-matrinic crotonate dihydrochloride], in data set [1], the EC50 is 18.1 ± 6.49 µM and the “SI (ratio of CC50 to EC50)” value is 14.4. Besides, in data set [2], the CC50 stood at 260 ± 84.8 µM.

Regarding `C=Cc1ccc(CN2C[C@@H]3CCCN4CCC[C@@H]([C@H]34)[C@H]2CCCCO)cc1.Cl.Cl` [7c, 12N-(4-Vinylbenzyl)matrinol dihydrochloride], in data set [1], the EC50 is 3.16 ± 0.51 µM and the “SI (ratio of CC50 to EC50)” value stood at 45.3. In data set [2], the CC50 was 143 ± 32.3 µM.

Turning to `CC(C)(O)CCCC1C2CCCN3CCCC(CN1Cc1ccc(F)cc1F)C23.Cl.Cl` (centres unmarked) [10d, 1′,1′-Dimethyl-12N-(2,4-difluorobenzyl)matrinol dihydrochloride], in data set [1], the EC50 is 6.55 ± 2.69 µM and the “SI (ratio of CC50 to EC50)” value worked out at 23.8. In data set [2], this compound had a CC50 of 156 ± 37.9 µM.

With `Cc1ccc(CN2CC3CCCN4CCCC(C2CCCC(C)(C)O)C34)cc1.Cl.Cl` (centres unmarked) [10b, 1′,1′-Dimethyl-12N-(4-methylbenzyl)matrinol dihydrochloride], in data set [1], the EC50 was 0.82 ± 0.26 µM and the “SI (ratio of CC50 to EC50)” value came out at 67.9. This compound also showed a CC50 in data set [2] of 55.7 ± 7.5 µM.

As for `Cl.Cl.OCCCCC1C2CCCN3CCCC(CN1Cc1ccc(Cl)cn1)C23` (centres unmarked) [7 g, 12N-(5-Chloropyridin-2-ylmethyl)matrinol dihydrochloride], in data set [1], the EC50 came to 10.9 ± 5.59 µM and the “SI (ratio of CC50 to EC50)” value is given as over 45.9. The compound further returned a CC50 in data set [2] of over 500 µM.

As for `CCC(O)(CC)CCC[C@@H]1[C@H]2CCCN3CCC[C@@H](CN1Cc1ccc(C)cc1)[C@@H]23.Cl.Cl` [10c, 1′,1′-Diethyl-12N-(4-methylbenzyl)matrinol dihydrochloride], in data set [1], the EC50 was under 0.23 µM and the “SI (ratio of CC50 to EC50)” value is listed as over 53.5. Also, the CC50 in data set [2] came out at 12.3 ± 4.23 µM.

As for `O=C(CN1C[C@@H]2CCCN3CCC[C@@H]([C@H]23)[C@H]1CCCCO)Nc1ccccc1` [7 h, 12N-(2-Oxo-2-(phenylamino)ethyl)matrinol], in data set [1], the EC50 amounted to 46.7 ± 41 µM and the “SI (ratio of CC50 to EC50)” value is reported as over 10.7. In data set [2], this compound returned a CC50 of over 500 µM.

With `COC(=O)CCC[C@@H]1[C@H]2CCCN3CCC[C@@H](CN1Cc1ccc(F)cc1)[C@@H]23` [compound 2], in data set [1], the EC50 is 2.09 ± 1.65 µM and the “SI (ratio of CC50 to EC50)” value is recorded as 131. Moreover, the CC50 in data set [2] (setting [3]) stood at 274 ± 8.35 µM.

As for `C=Cc1ccc(CN2C[C@@H]3CCCN4CCC[C@@H]([C@H]34)[C@H]2CCCC(=O)OC)cc1` [6c, Methyl 12N-(4-vinylbenzyl)matrinate], in data set [1], the EC50 is 1.61 ± 0.76 µM and the “SI (ratio of CC50 to EC50)” value was determined as 50.4. For the same compound, the CC50 in data set [2] (setting [3]) amounted to 81.2 ± 12.9 µM.
